Laboratory results reported in PubChem BioAssay (NCI).
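Cells were grown in 96-well plates and exposed to each compound for 48 hours at five concentrations; endpoints were interpolated linearly between bracketing concentrations, or set to the highest concentration if not reached. At the TGI there is no net growth.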

Tests used:
Assay in all cases: NCI tumour cell line growth inhibition, 48 h
[1] = tested on: 786-0 renal
[2] = tested on: A498 renal
[3] = tested on: A549 NSCLC
[4] = tested on: ACHN renal
[5] = tested on: CAKI-1 renal
[6] = tested on: CCRF-CEM leukemia
[7] = tested on: COLO 205 colon
[8] = tested on: DU-145 prostate
[9] = tested on: HCC-2998 colon
[10] = tested on: HCT-116 colon
[11] = tested on: HCT-15 colon
[12] = tested on: HOP-62 NSCLC
[13] = tested on: HOP-92 NSCLC
[14] = tested on: HS 578T breast
[15] = tested on: HT29 colon
[16] = tested on: IGROV1 ovarian
[17] = tested on: K-562 leukemia
[18] = tested on: KM12 colon
[19] = tested on: M14 melanoma
[20] = tested on: MALME-3M melanoma
[21] = tested on: MCF7 breast
[22] = tested on: MDA-MB-231 breast
[23] = tested on: MDA-MB-435
[24] = tested on: MDA-N
[25] = tested on: MOLT-4 leukemia
[26] = tested on: NCI-H226 lung
[27] = tested on: NCI-H460 lung
[28] = tested on: NCI-H522 lung
[29] = tested on: NCI/ADR-RES ovarian
[30] = tested on: OVCAR-3 ovarian
[31] = tested on: OVCAR-4 ovarian
[32] = tested on: OVCAR-5 ovarian
[33] = tested on: OVCAR-8 ovarian
[34] = tested on: PC-3 prostate
[35] = tested on: RPMI-8226 leukemia
[36] = tested on: RXF 393 renal
[37] = tested on: SF-268 CNS
[38] = tested on: SF-295 CNS
[39] = tested on: SF-539 CNS
[40] = tested on: SK-MEL-2 melanoma
[41] = tested on: SK-MEL-28 melanoma
[42] = tested on: SK-MEL-5 melanoma
[43] = tested on: SK-OV-3 ovarian
[44] = tested on: SN12C renal
[45] = tested on: SNB-75 CNS
[46] = tested on: SR leukemia
[47] = tested on: SW-620 colon
[48] = tested on: T-47D breast
[49] = tested on: TK-10 renal
[50] = tested on: U251 CNS
[51] = tested on: UACC-257 melanoma
[52] = tested on: BT-549 breast
[53] = tested on: EKVX NSCLC
[54] = tested on: HL-60(TB) leukemia
[55] = tested on: LOX IMVI melanoma
[56] = tested on: NCI-H23 lung
[57] = tested on: SNB-19 CNS
[58] = tested on: UO-31 renal

N#Cc1nc(CN2C(=O)c3ccccc3C2=O)oc1N
TGI [1]: > 100 µM
TGI [2]: > 100 µM
TGI [3]: > 100 µM
TGI [4]: > 100 µM
TGI [5]: > 100 µM
TGI [6]: > 100 µM
TGI [7]: > 100 µM
TGI [8]: > 100 µM
TGI [9]: > 100 µM
TGI [10]: > 100 µM
TGI [11]: > 100 µM
TGI [12]: > 100 µM
TGI [13]: > 100 µM
TGI [14]: > 100 µM
TGI [15]: > 100 µM
TGI [16]: > 100 µM
TGI [17]: > 100 µM
TGI [18]: > 100 µM
TGI [19]: > 100 µM
TGI [20]: > 100 µM
TGI [21]: > 100 µM
TGI [22]: > 100 µM
TGI [23]: > 100 µM
TGI [24]: > 100 µM
TGI [25]: > 100 µM
TGI [26]: > 100 µM
TGI [27]: > 100 µM
TGI [28]: > 100 µM
TGI [29]: > 100 µM
TGI [30]: > 100 µM
TGI [31]: > 100 µM
TGI [32]: > 100 µM
TGI [33]: > 100 µM
TGI [34]: > 100 µM
TGI [35]: > 100 µM
TGI [36]: > 100 µM
TGI [37]: > 100 µM
TGI [38]: > 100 µM
TGI [39]: > 100 µM
TGI [40]: > 100 µM
TGI [41]: > 100 µM
TGI [42]: > 100 µM
TGI [43]: > 100 µM
TGI [44]: > 100 µM
TGI [45]: > 100 µM
TGI [46]: > 100 µM
TGI [47]: > 100 µM
TGI [48]: > 100 µM
TGI [49]: > 100 µM
TGI [50]: > 100 µM
TGI [51]: > 100 µM

COc1ccc(N=C(C)C(C)=Nc2ccc(OC)cc2)cc1
TGI [1]: > 100 µM
TGI [2]: > 100 µM
TGI [3]: > 100 µM
TGI [4]: > 100 µM
TGI [52]: > 100 µM
TGI [5]: > 100 µM
TGI [6]: > 100 µM
TGI [7]: 37.1 µM
TGI [8]: > 100 µM
TGI [53]: > 100 µM
TGI [9]: 82.6 µM
TGI [10]: > 100 µM
TGI [11]: > 100 µM
TGI [54]: > 100 µM
TGI [12]: > 100 µM
TGI [13]: > 100 µM
TGI [14]: > 100 µM
TGI [15]: > 100 µM
TGI [16]: > 100 µM
TGI [17]: > 100 µM
TGI [18]: > 100 µM
TGI [55]: > 100 µM
TGI [19]: > 100 µM
TGI [20]: > 100 µM
TGI [21]: > 100 µM
TGI [22]: > 100 µM
TGI [23]: > 100 µM
TGI [25]: > 100 µM
TGI [26]: > 100 µM
TGI [56]: > 100 µM
TGI [27]: > 100 µM
TGI [28]: > 100 µM
TGI [29]: > 100 µM
TGI [30]: > 100 µM
TGI [31]: > 100 µM
TGI [32]: > 100 µM
TGI [33]: > 100 µM
TGI [34]: > 100 µM
TGI [35]: > 100 µM
TGI [36]: > 100 µM
TGI [37]: > 100 µM
TGI [38]: > 100 µM
TGI [39]: > 100 µM
TGI [40]: > 100 µM
TGI [41]: > 100 µM
TGI [42]: > 100 µM
TGI [43]: > 100 µM
TGI [44]: > 100 µM
TGI [57]: > 100 µM
TGI [45]: > 100 µM
TGI [46]: > 100 µM
TGI [47]: > 100 µM
TGI [48]: > 100 µM
TGI [49]: > 100 µM
TGI [50]: > 100 µM
TGI [51]: > 100 µM
TGI [58]: > 100 µM
